The text below walks through data of paper PMC12631574, “Structure–activity relationships of hydrophobic small molecule irreversible inhibitors of tissue transglutaminase” (RSC Medicinal Chemistry, 2025).

The target of series [1] is T1, tissue transglutaminase (TG2), C-terminal His-tag TG2 (Homo sapiens, UniProt P21980).
T1 construct: host or cells: Novagen Rosetta 2 (DE3) E. coli
T1 sequence (P21980 1-687): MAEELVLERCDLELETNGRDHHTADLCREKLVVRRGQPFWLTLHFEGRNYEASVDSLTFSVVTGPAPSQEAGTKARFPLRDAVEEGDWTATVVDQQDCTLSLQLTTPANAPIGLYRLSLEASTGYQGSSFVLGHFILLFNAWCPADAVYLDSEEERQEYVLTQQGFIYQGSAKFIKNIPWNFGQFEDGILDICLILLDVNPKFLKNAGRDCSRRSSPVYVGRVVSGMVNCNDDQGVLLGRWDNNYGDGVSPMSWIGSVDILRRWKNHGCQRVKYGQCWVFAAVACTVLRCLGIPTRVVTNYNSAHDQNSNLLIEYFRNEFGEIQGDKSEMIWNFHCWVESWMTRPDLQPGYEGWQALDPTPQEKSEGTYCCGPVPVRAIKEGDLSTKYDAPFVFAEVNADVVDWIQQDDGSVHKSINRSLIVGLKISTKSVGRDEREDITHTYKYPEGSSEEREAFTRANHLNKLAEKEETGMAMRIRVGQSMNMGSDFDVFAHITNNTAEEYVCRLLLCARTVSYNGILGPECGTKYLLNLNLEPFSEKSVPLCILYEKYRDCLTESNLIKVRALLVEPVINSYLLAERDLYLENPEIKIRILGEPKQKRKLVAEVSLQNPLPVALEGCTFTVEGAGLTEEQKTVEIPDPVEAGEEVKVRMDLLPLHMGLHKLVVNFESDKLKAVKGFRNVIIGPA
Nature of the series: continuous AL5 hydrolysis assay of irreversible TG2 inhibition (kobs vs [I]/α). Format: biochemical.

A short description of series [2]: solubility in inhibition assay conditions and stock solutions. Format: physicochemical. The conditions noted are these: inhibition assay mixture, DMSO not above 6%.
Series [3] in a line: parallel artificial membrane permeability assay (PAMPA), at Pharmaron. Type of series: in vitro ADME. Background: The PAMPA barrier holds no transporters, so it reflects passive diffusion.
Series [4] can be described thus: stability in human hepatocytes, at Pharmaron. Format: in vitro ADME. The conditions noted are these: 20-donor, pooled; for hepatocyte CLint: read-out: In vitro CLint; for half-life: human, hepatocytes, read-out: In vitro t1/2.
Series [5] can be described thus: incubation in phosphate buffer with no hepatocytes present. Format: physicochemical. Particulars: phosphate buffer 0.1 M, pH = 8.0, no hepatocytes present.
In the next series the test system is human hepatocytes. Further details: method as in PMID 36846370. The conditions noted are these: cited from earlier work.
The test system of the next series is MDCK-MDR1 cells. Further details: method as in PMID 39708924. Particulars: cited from earlier work.
Setting [6] is: inhibition efficiency, combined from kinact and KI.
[7] abbreviates: irreversible inhibition, AL5 100 μM, pH 6.9, 25 °C, triplicate.
Where [8] appears, read: supplement, kinetics data and fitting.
Setting [9] is: Pe in cm s^−1, lower value is more permeable, read-out: −log[Pe (cm s^−1)] (converted).

Like-named read-outs stand apart in the source and are kept apart here.

Consider `C=CC(=O)NCC(=O)N1CCN(C(=O)c2ccc(-c3ccc(C)cc3)cc2)CC1` [Compound 21i, N-2-[4-[((4′-Methyl-4-biphenyl)carbonyl)-1-piperazinyl]-2-oxoethyl]propenamide], for which, in series [1] (setting [6]), the kinact/KI entry was “INS”. Besides, in series [1] (setting [7]), the KI entry was “INS” and the kinact (usually the maximal first-order rate at which the target is inactivated) is given as “INS”. Moreover, the “solubility in assay conditions” value in series [2] was “too insoluble in assay conditions”.

Consider `C=CC(=O)NCC(=O)N1CCN(C(=O)c2ccccc2Nc2ccccc2)CC1` [Compound 22c, N-2-[4-[(((2-Phenylamino)phenyl)carbonyl)-1-piperazinyl]-2-oxoethyl]propenamide], for which the kinact in series [1] is 0.0119 s⁻¹. For the same molecule, the KI (inactivation) in series [1] (setting [7]) turned out to be 6.4 ± 0.7 µM. In series [1] (setting [8]), the KI (inactivation) is 6.38 ± 0.7 µM and the kinact/KI is recorded as 112 ± 14 × 103 M-1min-1.

As for `C=CC(=O)NCC(=O)N1CCN(C(=O)c2cccc(Cc3ccccc3)c2)CC1` [Compound 22d, N-2-[4-[((3-benzylphenyl)carbonyl)-1-piperazinyl]-2-oxoethyl]propenamide], the kinact in series [1] is 0.0168 s⁻¹. Besides, the KI (inactivation) in series [1] (setting [7]) amounted to 8.8 ± 2.7 µM; in series [1] (setting [8]), 8.84 ± 2.72 µM. Also, the kinact/KI in series [1] (setting [8]) was 114 ± 38 × 103 M-1min-1.

As for `C=CC(=O)NCC(=O)N1CCN(C(=O)c2cccc(Oc3ccccc3)c2)CC1` [Compound 22e, N-2-[4-[((3-Phenoxyphenyl)carbonyl)-1-piperazinyl]-2-oxoethyl]propenamide], the kinact in series [1] is 0.0223 s⁻¹. For the same molecule, in series [1] (setting [7]), the KI (inactivation) is 11.9 ± 4 µM. For the same molecule, in series [1] (setting [8]), the KI (inactivation) was 11.9 ± 4 µM and the kinact/KI is on record as 112 ± 41 × 103 M-1min-1.

Consider `C=CC(=O)NCC(=O)N1CCN(C(=O)c2cccc(Nc3ccccc3)c2)CC1` [Compound 22f, N-2-[4-[(((3-Phenylamino)phenyl)carbonyl)-1-piperazinyl]-2-oxoethyl]propenamide], for which the kinact in series [1] was 0.0165 s⁻¹. The KI (inactivation) in series [1] (setting [7]) and in series [1] (setting [8]) was 31.7 ± 8.6 µM each time. Besides, the kinact/KI in series [1] (setting [8]) is recorded as 31.2 ± 10.0 × 103 M-1min-1.

`C=CC(=O)NCC(=O)N1CCN(C(=O)c2ccc(Cc3ccccc3)cc2)CC1` [Compound 22g, N-2-[4-[((4-Benzylphenyl)carbonyl)-1-piperazinyl]-2-oxoethyl]propenamide]: in series [1], the kinact was 0.0253 s⁻¹. In addition, in series [1] (setting [7]), the KI (inactivation) stood at 58.1 ± 9.4 µM. Besides, in series [1] (setting [8]), the KI (inactivation) was determined as 58.1 ± 9.4 µM and the kinact/KI is reported as 26.1 ± 4.9 × 103 M-1min-1.

`C=CC(=O)NCC(=O)N1CCN(C(=O)c2ccc(Oc3ccccc3)cc2)CC1` [Compound 22h, N-2-[4-[((4-Phenoxyphenyl)carbonyl)-1-piperazinyl]-2-oxoethyl]propenamide]: the kinact/KI result in series [1] (setting [6]) was “INS”. In series [1] (setting [7]), the KI entry is “INS” and the kinact entry is recorded as “INS”. Further, the “solubility in assay conditions” value in series [2] was “too insoluble in assay conditions”.

Take `C=CC(=O)NCC(=O)N1CCN(C(=O)c2ccc(Nc3ccccc3)cc2)CC1` [Compound 22i, N-2-[4-[(((4-Phenylamino)phenyl)carbonyl)-1-piperazinyl]-2-oxoethyl]propenamide]: the kinact in series [1] is 0.0255 s⁻¹. The KI (inactivation) in series [1] (setting [7]) is 92.8 ± 43.3 µM. Further, in series [1] (setting [8]), the KI (inactivation) worked out at 92.8 ± 43.3 µM and the kinact/KI is 16.5 ± 9.4 × 103 M-1min-1.

For `C=CC(=O)NCC(=O)N1CCN(C(=O)C23CC4CC(CC(F)(C4)C2)C3)CC1` [Compound 25a, N-2-[4-[(3-Fluoroadamantanecarbonyl)-1-piperazinyl]-2-oxoethyl]propenamide], the KI (inactivation) in series [1] (setting [7]) and in series [1] (setting [8]) was 3.15 ± 0.33 µM each time.

On to `C=CC(=O)NCC(=O)N1CCN(C(=O)C23CC4CC(CC(Cl)(C4)C2)C3)CC1` [Compound 25b, N-2-[4-[(3-Chloroadamantanecarbonyl)-1-piperazinyl]-2-oxoethyl]propenamide], for which, in series [1], the kinact was 0.0282 s⁻¹. The same molecule had a KI (inactivation) in series [1] (setting [7]) of 1.79 ± 0.17 µM. Moreover, in series [1] (setting [8]), the KI (inactivation) turned out to be 1.79 ± 0.17 µM and the kinact/KI was 941 ± 101 × 103 M-1min-1. In series [3] (Pe in cm s^−1, lower value is more permeable), the “−log[Pe (cm s^−1)]” value is given as 5.85. Besides, in series [3] (read-out: Pe), the Papp came out at 14.1 nm/s. For the same molecule, in series [4], the hepatocyte CLint is 6.91 µL/min/1e6 cells and the half-life amounted to 200 min.

Consider `C=CC(=O)NCC(=O)N1CCN(C(=O)C23CC4CC(CC(Br)(C4)C2)C3)CC1` [Compound 25c, N-2-[4-[(3-Bromoadamantanecarbonyl)-1-piperazinyl]-2-oxoethyl]propenamide], for which the kinact in series [1] was 0.0119 s⁻¹. Further, in series [1] (setting [7]), the KI (inactivation) is 0.65 ± 0.08 µM. Besides, in series [1] (setting [8]), the KI (inactivation) is 0.648 ± 0.085 µM and the kinact/KI is recorded as 1104 ± 162 × 103 M-1min-1. In series [3] (setting [9]), the Papp was 21.9 nm/s. In series [5], the “stability in phosphate buffer” value is “degrade after 24 hours”.

For the molecule `C=CC(=O)NCC(=O)N1CCN(C(=O)C23CC4CC(C2)CC(c2ccccc2)(C4)C3)CC1` [Compound 25d, N-2-[4-[(3-Phenyladamantanecarbonyl)-1-piperazinyl]-2-oxoethyl]propenamide], the kinact in series [1] was 0.0112 s⁻¹. In addition, in series [1] (setting [7]), the KI (inactivation) amounted to 0.69 ± 0.07 µM. Also, in series [1] (setting [8]), the KI (inactivation) is 0.691 ± 0.067 µM and the kinact/KI was 972 ± 103 × 103 M-1min-1. Further, the Papp in series [3] (setting [9]) was 132 nm/s. Further, in series [4], the hepatocyte CLint is 29.3 µL/min/1e6 cells and the half-life is around 47 min.

As to `C=CC(=O)NCC(=O)N1CCN(C(=O)C23CC4CC(CC(I)(C4)C2)C3)CC1` [Compound 29, N-2-[4-[(3-Iodoadamantanecarbonyl)-1-piperazinyl]-2-oxoethyl]propenamide], in series [1], the kinact was 0.0278 s⁻¹. For the same molecule, the KI (inactivation) in series [1] (setting [7]) was 1.4 ± 0.12 µM. In addition, in series [1] (setting [8]), the KI (inactivation) turned out to be 1.4 ± 0.12 µM and the kinact/KI is given as 1195 ± 112 × 103 M-1min-1. Also, in series [3] (setting [9]), the Papp is 52.5 nm/s. Also, in series [4], the hepatocyte CLint is 69.2 µL/min/1e6 cells and the half-life was 20 min. Also, in series [5], the “stability in phosphate buffer” value is “degrade after 24 hours”.

For the molecule `C=CC(=O)NCC(=O)N1CCN(S(=O)(=O)C23CC4CC(CC(C4)C2)C3)CC1` [Compound 38, N-[2-(4-((Adamantan-1-yl)sulfonyl)piperazin-1-yl)-2-oxoethyl]propenamide], the kinact in series [1] was 0.0162 s⁻¹. The molecule also gave a KI (inactivation) in series [1] (setting [7]) of 7.56 ± 1.87 µM. Besides, in series [1] (setting [8]), the KI (inactivation) stood at 7.56 ± 1.87 µM and the kinact/KI was 129 ± 36 × 103 M-1min-1.

Consider `C=CC(=O)NCC(=O)N1CCN(C(=O)C23CC4CC(CC(C4)C2)C3)CC1` [EB-2-16, reference compound], for which, in series [1], the kinact is 0.0233 s⁻¹. Moreover, the KI (inactivation) in series [1] (setting [7]) and in series [1] (setting [8]) was 2.43 ± 0.19 µM throughout. Moreover, the kinact/KI in series [1] (setting [8]) is 576 ± 50 × 103 M-1min-1. Besides, the Papp in series [3] (setting [9]) was 15.5 nm/s. Further, in the series on human hepatocytes, the “In vitro t1/2” value is >120 (ref. [27]) min. Further, the “susceptibility to P-glycoprotein-mediated efflux” value with MDCK-MDR1 cells (MDCK-MDR1 cells) is “not susceptible to P-glycoprotein-mediated efflux”. The “diffusion across the membrane of MDCK-MDR1 cells” value in the series on MDCK-MDR1 cells (bidirectional) is on record as “excellent bidirectional diffusion”.
